Test results reported in patent US6500842B1, “8-hydroxy-7-substituted quinolines as anti-viral agents” (Pharmacia & Upjohn Company, priority 1996, dated 2002).
Several values for one entry are separate records, joined by “and”; a condition that tells them apart may be missing. Equal entries are not always repeated. Where two headings read alike, the source gives them in different places. Values belong to the molecule of their own block, whether it stands above or below them.

Key:
CMV polymerase = biological target: T1, CMV polymerase (Human cytomegalovirus, UniProt P08546); assay: modified version of the HCMV polymerase assay (100% DMSO dilution, DTT, different enzyme lot); type: biochemical
T1 construct: made in house; host or cells: recombinant baculovirus-infected SF-9 cells
Method: (§1) The HCMV polymerase assay is performed using a scintillation proximity assay (SPA) as described in several references, such as N. D. Cook, et al., Pharmaceutical Manufacturing International, pages 49-53 (1992); K. Takeuchi, Laboratory Practice, September issue (1992); U.S. Pat. No. 4,568,649 (1986); which are incorporated by reference herein. Reactions are performed in 96-well plates. The assay is conducted in 100 μl volume with 5.4 mM HEPES (pH 7.5), 11.7 mM KCl, 4.5 mM MgCl2, 0.36 mg/ml BSA, and 90 nM ^3H-dTTP. Assays are run with and without CHAPS, (3-[(3-Cholamidopropyl)-dimethylammonio]-1-propane-sulfonate) at a final concentration of 2 mM. HCMV is diluted in enzyme dilution buffer containing 50% glycerol, 250 mM NaCl, 10 mM HEPES (pH 7.5), 100 pg/ml BSA, and 0.01% sodium azide. The HCMV polymerase, which is expressed in recombinant baculovirus-infected SF-9 cells and purified according to literature procedures, is added at 10% (or 10 μl) of the final reaction volume, i.e., 100 μl. Compounds are diluted in 50% DMSO and 10 μl are added to each well. Control wells contain an equivalent concentration of DMSO. Unless noted otherwise, reactions are initiated via the addition of 6 nM biotinylated poly(dA)-oligo(dT) template/primer to reaction mixtures containing the enzyme, substrate, and compounds of interest. Plates are incubated in a 25° C. of 37° C. H2O bath and terminated via the addition of 40 μl/reaction of 0.5 M EDTA (pH 8) per well. Reactions are terminated within the time-frame during which substrate incorporation is linear and varied depending upon the enzyme and conditions used, i.e., 30 min. for HCMV polymerase. Ten μl of streptavidin-SPA beads (20 mg/ml in PBS/10% glycerol) are added following termination of the reaction. Plates are incubated 10 min. at 37° C., then equilibrated to room temperature, and counted on a Packard Topcount. Linear regressions are performed and IC50's are calculated using computer software. Results of the testing of compounds of the present invention in this assay are shown in Tables 1, 2, 5, 9, 10, 11, 13 (except for the last compound which was tested under modified conditions) and 14 below.
A modified version of the above HCMV polymerase assay is performed as described above, but with the following changes: Compounds are diluted in 100% DMSO until final dilution into assay buffer. In the previous assay, compounds are diluted in 50% DMSO. 4.5 mM dithiotherotol (DTT) is added to the polymerase buffer.

HCMV polymerase = biological target: T2, HCMV polymerase (Human cytomegalovirus, UniProt P08546); assay: HCMV polymerase assay (scintillation proximity assay); type: biochemical
T2 construct: made in house; host or cells: recombinant baculovirus-infected SF-9 cells
Method: as §1

[1] = pol type CMV, Table 1, read-out: CMV pol Assay IC50
[2] = pol type CMV, Table 2, read-out: IC50
[3] = Table 5, pol type CMV, read-out: IC50
[4] = Polymerase CMV, Table 7, read-out: Antiviral Selective Polymerase IC50 Values - IC50
[5] = Table 10, CMV pol Assay, read-out: IC50
[6] = Table 11, read-out: CMV pol Assay IC50

T2 sequence (P08546 whole entry): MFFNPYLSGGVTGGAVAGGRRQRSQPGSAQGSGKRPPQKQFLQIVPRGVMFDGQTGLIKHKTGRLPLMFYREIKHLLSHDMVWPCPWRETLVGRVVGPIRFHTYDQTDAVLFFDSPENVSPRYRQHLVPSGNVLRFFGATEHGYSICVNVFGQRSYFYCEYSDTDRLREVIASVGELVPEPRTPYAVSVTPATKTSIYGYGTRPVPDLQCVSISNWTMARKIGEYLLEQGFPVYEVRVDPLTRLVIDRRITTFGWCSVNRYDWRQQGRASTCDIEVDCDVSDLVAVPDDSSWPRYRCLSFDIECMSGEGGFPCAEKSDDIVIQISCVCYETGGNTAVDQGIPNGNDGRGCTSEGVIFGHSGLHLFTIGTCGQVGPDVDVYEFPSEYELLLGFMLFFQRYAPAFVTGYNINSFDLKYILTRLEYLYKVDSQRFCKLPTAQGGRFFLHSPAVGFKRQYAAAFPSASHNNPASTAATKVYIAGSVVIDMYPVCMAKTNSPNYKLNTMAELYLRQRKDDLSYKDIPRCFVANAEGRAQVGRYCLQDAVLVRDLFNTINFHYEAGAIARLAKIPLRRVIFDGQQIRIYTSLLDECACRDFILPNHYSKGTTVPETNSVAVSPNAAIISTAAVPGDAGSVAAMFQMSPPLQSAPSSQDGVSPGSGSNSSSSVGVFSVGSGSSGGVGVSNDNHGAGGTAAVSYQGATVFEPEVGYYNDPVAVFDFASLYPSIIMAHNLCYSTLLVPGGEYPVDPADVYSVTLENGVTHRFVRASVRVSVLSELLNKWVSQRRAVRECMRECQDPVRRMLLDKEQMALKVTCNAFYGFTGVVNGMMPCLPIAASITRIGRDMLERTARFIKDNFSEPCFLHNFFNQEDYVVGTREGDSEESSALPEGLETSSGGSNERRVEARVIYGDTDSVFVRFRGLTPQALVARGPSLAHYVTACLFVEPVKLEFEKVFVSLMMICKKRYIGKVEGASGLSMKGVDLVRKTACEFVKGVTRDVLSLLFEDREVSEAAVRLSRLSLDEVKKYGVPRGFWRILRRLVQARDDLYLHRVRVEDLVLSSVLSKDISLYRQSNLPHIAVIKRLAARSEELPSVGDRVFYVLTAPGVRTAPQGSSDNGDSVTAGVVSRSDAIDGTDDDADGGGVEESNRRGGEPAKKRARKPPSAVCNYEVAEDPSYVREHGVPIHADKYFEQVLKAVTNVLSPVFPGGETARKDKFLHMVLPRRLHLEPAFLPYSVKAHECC
T1 sequence (P08546 whole entry): as above

Structure (SMILES): O=C(NCCCc1ccccc1)c1ccc2ccc(/C=C/c3ccccc3)nc2c1O
IC50 (CMV polymerase; Table 13, last compound, tested under modified conditions, read-out: IC50): 5.1 µM

Structure (SMILES): CC(C)C[C@H](Nc1nnc(NC(=O)c2ccc3cccnc3c2O)s1)C(=O)OC(C)(C)C.O (hydrate or solvate)
melting point: 214 to 215 °C

Structure (SMILES): CSCC[C@H](Nc1nnc(NC(=O)c2ccc3cccnc3c2O)s1)C(=O)OC(C)(C)C.O (hydrate or solvate)
melting point: 204 to 205 °C

Structure (SMILES): O=C(NCc1ccc(Cl)cc1)c1ccc2cccnc2c1O [Example 1, N-[(4-Chlorophenyl)methyl]-8-hydroxy-7-quinolinecarboxamide]
IC50 (HCMV polymerase; [1]): 10.2 µM

Structure (SMILES): O=C(NC1=NC(=O)C(c2ccc(Cl)cc2)S1)c1cc(Br)c2cccnc2c1O (stereo not shown) [Example 6, 5-Bromo-N-[5-(4-chlorophenyl)-4,5-dihydro-4-oxo-2-thiazolyl]-8-hydroxy-7-quinolinecarboxamide]
IC50 (HCMV polymerase; [1]): 4.1 µM

Structure (SMILES): O=C(Nc1nnc(-c2ccc(Cl)cc2)s1)c1ccc2cccnc2c1O [Example 14, N-[5-(4-Chlorophenyl)-1,3,4-thiadiazol-2-yl]-8-hydroxy-7-quinolinecarboxamide]
IC50 (HCMV polymerase; [1]): 23.4 µM

Structure (SMILES): O=S(=O)(NCc1ccccc1)c1cc(Cl)c2cccnc2c1O [Example 22, 5-Chloro-8-hydrxoy-N-(phenylmehtyl)-7-quinolinesulfonamide]
% Inhib (HCMV polymerase; Conc 1.00e−004 M, Table 2): 98.2% and 99.7% | % Inhib (HCMV polymerase; Conc 1.30e−005 M, Table 2): 68.9% and 78.3% | % Inhib (HCMV polymerase; Conc 2.50e−005 M, Table 2): 90.7% and 95.2% | % Inhib (HCMV polymerase; Conc 5.00e−005 M, Table 2): 96.7% and 98.6% | % Inhib (HCMV polymerase; Conc 6.25e−006 M, Table 2): 33.3% and 51.5% | IC50 (HCMV polymerase; [2]): 8.6 µM and 4.5 µM

Structure (SMILES): O=S(=O)(NCc1ccccc1)c1cc(Br)c2cccnc2c1O [Example 24, 5-Bromo-8-hydroxy-N-(phenylmethyl)-7-quinolinesulfonamide]
melting point: 191 to 192 °C

Structure (SMILES): Cc1ccc2c(Cl)cc(S(=O)(=O)NCc3ccc(F)cc3)c(O)c2n1 [Example 30]
% Inhib (HCMV polymerase; Conc 1.00e−004 M, Table 2): 97% | % Inhib (HCMV polymerase; Conc 1.30e−005 M, Table 2): 73.4% | % Inhib (HCMV polymerase; Conc 2.50e−005 M, Table 2): 87.5% | % Inhib (HCMV polymerase; Conc 3.13e−006 M, Table 2): 42.6% | % Inhib (HCMV polymerase; Conc 5.00e−005 M, Table 2): 95.4% | % Inhib (HCMV polymerase; Conc 6.25e−006 M, Table 2): 59.9% | IC50 (HCMV polymerase; [2]): 4.3 µM

Structure (SMILES): Cc1ccc2c(Cl)cc(S(=O)(=O)NCc3cccc4ccccc34)c(O)c2n1 [Example 31, 5-Chloro-8-hydroxy-2-methyl-N-(1-naphthalenylmethyl)-7-quinolinesulfonamide]
% Inhib (HCMV polymerase; Conc 1.00e−004 M, Table 2): 97.3% | % Inhib (HCMV polymerase; Conc 1.00e−005 M, Table 2): 88.2% | % Inhib (HCMV polymerase; Conc 1.25e−006 M, Table 2): 22.7% | % Inhib (HCMV polymerase; Conc 1.30e−005 M, Table 2): 97.3% | % Inhib (HCMV polymerase; Conc 2.50e−005 M, Table 2): 97.8% | % Inhib (HCMV polymerase; Conc 2.50e−006 M, Table 2): 38.5% | % Inhib (HCMV polymerase; Conc 3.13e−006 M, Table 2): 82.9% | % Inhib (HCMV polymerase; Conc 3.13e−007 M, Table 2): −7.9% | % Inhib (HCMV polymerase; Conc 5.00e−005 M, Table 2): 97.8% | % Inhib (HCMV polymerase; Conc 5.00e−006 M, Table 2): 55% | % Inhib (HCMV polymerase; Conc 6.25e−006 M, Table 2): 95% | % Inhib (HCMV polymerase; Conc 6.25e−007 M, Table 2): 20% | IC50 (HCMV polymerase; [2]): < 3.1 µM and 3.7 µM

Structure (SMILES): Cc1ccc2c(Cl)cc(S(=O)(=O)NCC3CCCCC3)c(O)c2n1 [Example 32, 5-Chloro-N-(cyclohexylmethyl)-8-hydroxy-2-methyl-7-quinolinesulfonamide]
melting point: 113 to 115 °C

Structure (SMILES): CCCCCCCNC(=O)c1ccc2ccc(/C=C/c3ccccc3)nc2c1O [Example 49, N-Heptyl-8-hydroxy-2-(2-phenylethenyl)-7-quinolinecarboxamide]
IC50 (HCMV polymerase; [3]): < 3.1 µM and 0.6 µM

Structure (SMILES): CCCCCCCNC(=O)c1ccc2ccc(C(F)(F)F)nc2c1O [Example 56, N-Heptyl-8-hydroxy-2-(trifluoromethyl)-7-quinolinecarboxamide]
melting point: 97 to 99 °C

Structure (SMILES): O=C(NCc1ccc(Cl)cc1)c1ccc2ccc(/C=C/c3ccco3)nc2c1O [Example 57, N-[(4-Chlorophenyl)methyl]-2-[2-(2-furyl)ethenyl]-8-hydroxy-7-quinolinecarboxamide]
IC50 (HCMV polymerase; [3]): 8 µM

Structure (SMILES): Cc1ccc2c(Cl)cc(S(=O)(=O)NCCc3c[nH]c4ccccc34)c(O)c2n1 [Example 64]
% Inhibition (CMV polymerase; Concentration 3.13 μM, Table 6): 16% | % Inhibition (CMV polymerase; Concentration 6.25 μM, Table 6): 25% | % Inhibition (CMV polymerase; Concentration 12.5 μM, Table 6): 25% | % Inhibition (CMV polymerase; Concentration 25 μM, Table 6): 46% | % Inhibition (CMV polymerase; Concentration 50 μM, Table 6): 75% | % Inhibition (CMV polymerase; Concentration 100 μM, Table 6): 58% | % Inhibition (CMV polymerase; Concentration 200 μM, Table 6): 84% | IC50 (CMV polymerase; Table 6, read-out: IC50): 29.8 µM

Structure (SMILES): O=S(=O)(NCc1ccccc1)c1cc(F)c2cccnc2c1O [Example 67, 5-Flouro-8-hydroxy-N-(phenylmethyl)-7-quinolinesulfonamide]
% Inhibition (CMV polymerase; Concentration 3.13 μM, Table 6): 13% | % Inhibition (CMV polymerase; Concentration 6.25 μM, Table 6): 23% | % Inhibition (CMV polymerase; Concentration 12.5 μM, Table 6): 25% | % Inhibition (CMV polymerase; Concentration 25 μM, Table 6): 41% | % Inhibition (CMV polymerase; Concentration 50 μM, Table 6): 76% | % Inhibition (CMV polymerase; Concentration 100 μM, Table 6): 86% | % Inhibition (CMV polymerase; Concentration 200 μM, Table 6): 94% | IC50 (CMV polymerase; Table 6, read-out: IC50): 23.6 µM

Structure (SMILES): Cc1ccc2c(Cl)cc(C(=O)NCc3ccc(Cl)cc3)c(O)c2n1 [Example 68, 5-Chloro-N-[(4-chlorophenyl)methyl]-8-hydroxy-2-methyl-7-quinolinecarboxamide]
melting point: 128 to 130 °C

Structure (SMILES): Cc1ccc2c(Cl)cc(C(=O)NCCCc3ccccc3)c(O)c2n1 [Example 69, 5-chloro-8-hydroxy-2-methyl-N-(3-phenylpropyl)-7-quinolinecarboxamide]
melting point: 109 to 111 °C

Structure (SMILES): N#CCNC(=O)c1ccc2cccnc2c1O [Example 72, N-(cyanomethyl)-8-hydroxy-7-quinolinecarboxamide]
melting point: 206 to 208 °C (dec.)

The remaining lines, values ahead:

melting point: 131 to 134 °C
Structure (SMILES): Cc1ccc2c(Cl)cc(C(=O)NCCSc3ccccc3)c(O)c2n1 [Example 70, 5-chloro-8-hydroxy-2-methyl-N-[(2-phenylthio)ethyl]-7-quinolinecarboxamide]

melting point: 106 to 108 °C
Structure (SMILES): CC(C)c1ccc(S(=O)(=O)NCCCCCNC(=O)c2ccc3cccnc3c2O)cc1 [Example 71]

melting point: 69 to 72 °C
Structure (SMILES): COc1ccc(CCc2ccc3ccc(C(=O)NCC(O)c4ccccc4)c(O)c3n2)cc1 (stereo not shown) [Example 73, 8-hydroxy-N-(2-hydroxy-2-phenylethyl)-2-[2-(4-methoxyphenyl)ethyl]-7-quinolinecarboxamide]

melting point: 210 to 211 °C
Structure (SMILES): O=C(Nc1cc(C(F)(F)F)ccc1Cl)c1ccc2cccnc2c1O [Example 164, N-[2-Chloro-5-(trifluoromethyl)phenyl]-8-hydroxy-7-quinolinecarboxamide]

melting point: 209 to 210 °C
Structure (SMILES): Cc1ccc(F)cc1NC(=O)c1ccc2cccnc2c1O [Example 165, N-(5-Fluoro-2-methylphenyl)-8-hydroxy-7-quinolinecarboxamide]

IC50 (CMV polymerase; [4]): 9.7 µM and 9.4 µM
Structure (SMILES): Cc1ccc2c(Cl)cc(C(=O)NCCCc3ccccc3)c(O)c2n1 [drawing 126]

IC50 (CMV polymerase; [4]): 42.8 µM
Structure (SMILES): Cc1ccc2c(Cl)cc(C(=O)NCCSc3ccccc3)c(O)c2n1 [drawing 127]

IC50 (CMV polymerase; [4]): < 3.1 µM
Structure (SMILES): CC(C)c1ccc(S(=O)(=O)NCCCCCNC(=O)c2ccc3cccnc3c2O)cc1 [drawing 128]

IC50 (CMV polymerase; [4]): 13.3 µM
Structure (SMILES): COc1ccc(CCc2ccc3ccc(C(=O)NCC(O)c4ccccc4)c(O)c3n2)cc1 (stereo not shown) [drawing 129]

IC50 (HCMV polymerase; Table 9, read-out: CMV pol Assay- IC50): 8.1 µM
Structure (SMILES): O=C(NCc1ccc(Cl)cc1)c1ccc2cccnc2c1O [drawing 169]

IC50 (HCMV polymerase; [5]): > 100 µM
Structure (SMILES): N#Cc1ccc(NC(=O)c2ccc3cccnc3c2O)cc1 [drawing 210]

IC50 (HCMV polymerase; [5]): 14 µM
Structure (SMILES): O=C(Nc1cc(C(F)(F)F)ccc1Cl)c1ccc2cccnc2c1O [drawing 221]

IC50 (HCMV polymerase; [5]): 14.7 µM
Structure (SMILES): Cc1ccc(F)cc1NC(=O)c1ccc2cccnc2c1O [drawing 222]

IC50 (HCMV polymerase; [5]): 22.4 µM
Structure (SMILES): Cc1ccc(NC(=O)c2ccc3cccnc3c2O)c(C)c1 [drawing 223]

IC50 (HCMV polymerase; [5]): 12.2 µM
Structure (SMILES): Cc1cccc(NC(=O)c2ccc3cccnc3c2O)c1 [drawing 224]

IC50 (HCMV polymerase; [5]): 8.1 µM
Structure (SMILES): Cc1ccc(NC(=O)c2ccc3cccnc3c2O)c(C)c1 [drawing 279]

IC50 (HCMV polymerase; [5]): 6.6 µM
Structure (SMILES): Cc1ccc(F)cc1NC(=O)c1ccc2cccnc2c1O [drawing 282]

IC50 (HCMV polymerase; [5]): 7 µM
Structure (SMILES): Cc1cccc(NC(=O)c2ccc3cccnc3c2O)c1 [drawing 284]

IC50 (HCMV polymerase; [6]): 71 µM
Structure (SMILES): O=C(Nc1nnc(C(F)(F)F)s1)c1ccc2cccnc2c1O [drawing 303]

IC50 (HCMV polymerase; [6]): 93.2 µM
Structure (SMILES): O=C(Nc1nnc(Br)s1)c1ccc2cccnc2c1O [drawing 304]
